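Five concentrations, 48 hours, 96-well plates. Here, GI50 denotes the concentration required for 50% inhibition of growth. TGI is the concentration that stops growth completely.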

This passage reports GI50 and TGI results from PubChem BioAssay (NCI).

Among the test systems are RPMI-8226 leukemia; HOP-92 NSCLC; SK-MEL-2 melanoma; OVCAR-3 ovarian; HL-60(TB) leukemia; U251 CNS; SK-OV-3 ovarian; HOP-62 NSCLC; A549 NSCLC; TK-10 renal.
Assay in all cases: inhibition of tumour cell growth, NCI panel, 48 h

With `O=C([CH-]C(=O)c1ccccc1)c1ccccc1.O=C([CH-]C(=O)c1ccccc1)c1ccccc1.[Nd+3].[OH-].[OH3+]`, the GI50 in the experiment on RPMI-8226 leukemia was 6.04 µM; in the experiment with HOP-92 NSCLC, 13.6 µM; in the experiment on SK-MEL-2 melanoma, 9.48 µM; with OVCAR-3 ovarian it was 8.31 µM; in the experiment on HL-60(TB) leukemia, 1.8 µM; in the experiment on U251 CNS it was 7.13 µM. Moreover, the GI50 is 14.5 µM in the experiment on SK-OV-3 ovarian, 3.58 µM in the experiment on HOP-62 NSCLC, 17.2 µM with A549 NSCLC and 26.4 µM in the experiment on TK-10 renal. Also, the TGI in the experiment with HOP-92 NSCLC worked out at 39.7 µM; in the experiment on SK-MEL-2 melanoma, 27 µM; with OVCAR-3 ovarian, 26.6 µM; with HL-60(TB) leukemia it was 8.17 µM; in the experiment with U251 CNS it was 40.3 µM; in the experiment on SK-OV-3 ovarian it was 48.2 µM. In addition, the TGI with HOP-62 NSCLC is 18.4 µM; with A549 NSCLC, 51.5 µM; with TK-10 renal, over 100 µM.
As to `CCN(CC)CCCCCCCNc1c2ccc(Cl)cc2nc2ccc(OC)cc12`, the GI50 in the experiment with RPMI-8226 leukemia was 0.337 µM; in the experiment with HOP-92 NSCLC, 1.29 µM; in the experiment with SK-MEL-2 melanoma it was 1.56 µM; in the experiment with OVCAR-3 ovarian, 1.55 µM; in the experiment with HL-60(TB) leukemia it was 1.71 µM; with U251 CNS it was 0.706 µM. Further, the GI50 in the experiment with SK-OV-3 ovarian is 1.41 µM; with HOP-62 NSCLC, 0.943 µM; in the experiment with A549 NSCLC, 0.664 µM; in the experiment with TK-10 renal it was 0.991 µM. Further, the TGI with RPMI-8226 leukemia was 1.3 µM; in the experiment on HOP-92 NSCLC, 3.45 µM; in the experiment with SK-MEL-2 melanoma, 3.77 µM; in the experiment on OVCAR-3 ovarian, 3.69 µM; in the experiment with HL-60(TB) leukemia, 3.62 µM; with U251 CNS, 1.93 µM. Moreover, the TGI with SK-OV-3 ovarian amounted to 3.58 µM; in the experiment with HOP-62 NSCLC it was 2.54 µM; with A549 NSCLC, 2.69 µM; in the experiment on TK-10 renal it was 4.08 µM.
As to `O=C1C=Cc2ccccc2/C1=C/c1[nH]c(=O)[nH]c1O`, the GI50 is 45.2 µM in the experiment on RPMI-8226 leukemia; 5.75 µM in the experiment on HOP-92 NSCLC; 2.97 µM with SK-MEL-2 melanoma; 2.51 µM in the experiment on OVCAR-3 ovarian; 3.44 µM in the experiment with HL-60(TB) leukemia; 5.39 µM in the experiment on U251 CNS. For the same compound, the GI50 with SK-OV-3 ovarian is 3.66 µM; in the experiment on HOP-62 NSCLC, 7.5 µM; in the experiment on A549 NSCLC it was 19.8 µM; in the experiment with TK-10 renal, 10.5 µM. Besides, the TGI in the experiment with RPMI-8226 leukemia is over 100 µM; in the experiment with HOP-92 NSCLC it was 47.8 µM; in the experiment with SK-MEL-2 melanoma, 8.71 µM; with OVCAR-3 ovarian it was 7.73 µM; with HL-60(TB) leukemia, over 100 µM; in the experiment with U251 CNS, 35 µM. The TGI with SK-OV-3 ovarian was 23.2 µM; in the experiment with HOP-62 NSCLC, 35 µM; with A549 NSCLC, 61.6 µM; in the experiment on TK-10 renal it was 85.4 µM.
Take `CC(c1cccc2ccccc12)/[N+]([O-])=C/c1ccccc1` (centres undefined): the TGI in the experiment on RPMI-8226 leukemia, in the experiment with HOP-92 NSCLC, in the experiment on SK-MEL-2 melanoma, in the experiment on OVCAR-3 ovarian, with HL-60(TB) leukemia and in the experiment with U251 CNS was over 100 µM each time. The TGI in the experiment on SK-OV-3 ovarian, with HOP-62 NSCLC, in the experiment on A549 NSCLC and in the experiment on TK-10 renal was over 100 µM in each case.
As to `O=C(NOCC1CC1)c1ccc(F)c(F)c1Nc1ccc(I)cc1Cl`, the GI50 in the experiment on RPMI-8226 leukemia is 1.97 µM; in the experiment on HOP-92 NSCLC, 0.0927 µM; with SK-MEL-2 melanoma, 0.166 µM; in the experiment on OVCAR-3 ovarian, 2.62 µM; with HL-60(TB) leukemia, 0.19 µM; in the experiment on U251 CNS, 1.55 µM. The GI50 is 4.35 µM in the experiment with SK-OV-3 ovarian, 2.04 µM in the experiment on HOP-62 NSCLC, 1.41 µM in the experiment on A549 NSCLC and 1.13 µM in the experiment with TK-10 renal. Moreover, the TGI in the experiment on RPMI-8226 leukemia was 9.48 µM; in the experiment on HOP-92 NSCLC, 1.18 µM; in the experiment on SK-MEL-2 melanoma, 2.05 µM; with OVCAR-3 ovarian, 7.54 µM; in the experiment on HL-60(TB) leukemia it was 8.26 µM; in the experiment on U251 CNS, 12.2 µM. Besides, the TGI was over 100 µM in the experiment on SK-OV-3 ovarian, over 100 µM in the experiment with HOP-62 NSCLC, 13.2 µM in the experiment on A549 NSCLC and 18.6 µM with TK-10 renal.
For the compound `N=C(N)CCCCCCCCC(=N)N`, the GI50 with RPMI-8226 leukemia is 31.1 µM; in the experiment on HOP-92 NSCLC, 19.1 µM; in the experiment on SK-MEL-2 melanoma, over 100 µM; in the experiment on OVCAR-3 ovarian, 34.1 µM; in the experiment with HL-60(TB) leukemia, 29.5 µM; in the experiment on U251 CNS, 8.08 µM. In addition, the GI50 with SK-OV-3 ovarian was 22.1 µM; in the experiment with HOP-62 NSCLC, 30.9 µM; in the experiment on A549 NSCLC it was 6.6 µM; with TK-10 renal, 32.2 µM. Also, the TGI with RPMI-8226 leukemia, with HOP-92 NSCLC, in the experiment with SK-MEL-2 melanoma, in the experiment with OVCAR-3 ovarian, in the experiment on HL-60(TB) leukemia and in the experiment on U251 CNS was over 100 µM each time. For the same compound, the TGI in the experiment on SK-OV-3 ovarian, with HOP-62 NSCLC, in the experiment with A549 NSCLC and with TK-10 renal was over 100 µM in each case.
As to `CS(=O)c1ccc(COP(N)(=O)N(CCCl)CCCl)cc1` (centres undefined), the TGI with RPMI-8226 leukemia, in the experiment on HOP-92 NSCLC, with SK-MEL-2 melanoma, with OVCAR-3 ovarian, in the experiment with HL-60(TB) leukemia and in the experiment on U251 CNS was over 100 µM in each case. Besides, the TGI in the experiment with SK-OV-3 ovarian, with HOP-62 NSCLC, in the experiment with A549 NSCLC and in the experiment with TK-10 renal was over 100 µM throughout.
On to `COc1cc2c(/C=C3/C(=O)Nc4ccccc43)c(Cl)n(Cc3ccccc3[N+](=O)[O-])c2cc1C`, for which the GI50 was 3.49 µM with RPMI-8226 leukemia; 7.25 µM in the experiment on HOP-92 NSCLC; 12.9 µM in the experiment with SK-MEL-2 melanoma; 3.02 µM in the experiment with OVCAR-3 ovarian; 4.78 µM in the experiment with HL-60(TB) leukemia; 11.2 µM in the experiment with U251 CNS. Further, the GI50 is 14.8 µM with SK-OV-3 ovarian, 10.7 µM in the experiment on HOP-62 NSCLC, 7.8 µM with A549 NSCLC and 12.4 µM in the experiment with TK-10 renal. Also, the TGI was over 100 µM with RPMI-8226 leukemia; 26.8 µM with HOP-92 NSCLC; 40.5 µM with SK-MEL-2 melanoma; 15 µM in the experiment with OVCAR-3 ovarian; over 100 µM in the experiment with HL-60(TB) leukemia; 25.1 µM with U251 CNS. Further, the TGI in the experiment on SK-OV-3 ovarian was 32.5 µM; in the experiment on HOP-62 NSCLC it was 27.6 µM; with A549 NSCLC, over 100 µM; in the experiment on TK-10 renal, 34.1 µM.
